From publication PMC8943889, “Synthetic studies with the brevicidine and laterocidine lipopeptide antibiotics including analogues with enhanced properties and in vivo efficacy” (Chemical Science, 2022) come the findings set out here.

The subject of one data set is A. baumannii 2018-006. The format is cell-based. To be noted: 2018-006, 16 h. The method, boiled down: (§1)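 CLSI broth microdilution, MHB, polypropylene plates; inoculum 2 × 10^5 CFU mL−1 (final); 16 h, 37°C, 220 rpm; visual endpoint; n = 3 technical.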
Another data set has as its system A. baumannii ATCC 17961. The class given is cell-based. To be noted: ATCC 17961, 16 h. Summed up: as §1
A further data set relates to A. baumannii ATCC 17978. The class given is cell-based. The following applies: ATCC 17978, 16 h. The method, boiled down: as §1
The subject of data set [1] is E. coli ATCC 25922. The format is cell-based. Summed up:
as §1

A further data set has as its system K. pneumoniae 2048. The format is cell-based. To be noted: 2048, 16 h. The method, boiled down: as §1
The next data set concerns K. pneumoniae ATCC 11228. The class given is cell-based. The following applies: ATCC 11228, 16 h. The method, boiled down:
as §1

Another data set relates to K. pneumoniae ATCC 13883. The format is cell-based. The following applies: ATCC 13883, 16 h. The method, boiled down: as §1
The test system of the next data set is K. pneumoniae JS-123. The format is cell-based. The following applies: JS-123, 16 h. Summed up: as §1
In a further data set the test system is P. aeruginosa ATCC 27853. The format is cell-based. To be noted: ATCC 27853, 16 h. Summed up: (§2)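 MIC = lowest concentration with no visible growth after 16 h at 37°C, 220 rpm, in MHB. Inoculum 2 × 10^5 CFU mL−1 from TSB cultures at OD600 0.5. CLSI broth microdilution, technical triplicates.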
A further data set relates to P. aeruginosa M-120. The class given is cell-based. To be noted: M-120, 16 h. The method, boiled down:
as §1

Another data set deals with P. aeruginosa NRZ-03961. The format is cell-based. To be noted: NRZ-03961, 16 h. The method, boiled down:
as §1

The test system of another data set is P. aeruginosa PAO1. The class given is cell-based. To be noted: PAO1, 16 h. Summed up:
as §1

A further data set concerns S. aureus USA300. The format is cell-based. The following applies: USA300, 16 h. The method, boiled down:
as §2

Data set [2] in a line: In vivo tolerability study. To be noted: naïve ICR mice, subcutaneous, 40 mg kg^−1 q8h over 24 h (total daily dose 120 mg kg^−1). Here is the method:
(§3) In vivo tolerability and efficacy studies
(§4) Ethical Issues. Animal experiments were performed under UK Home Office Licences P89653310 (tolerability and PK) and PA67E0BAA (thigh efficacy), with local ethical committee clearance.
(§5) Animal Strain. Mice used in these studies were supplied by Charles River (Margate UK) and were specific pathogen free. The strain of mice used was ICR (also known as CD1 Mice) which is a well characterized outbred murine strain. Mice (male) were 11-15 g on receipt and were allowed to acclimatise for at least 7 days.
(§6) Animal Housing. Mice were housed in sterilised individual ventilated cages exposing the mice at all times to HEPA filtered sterile air. Mice had free access to food and water and had aspen chip bedding (changed at least once weekly). The room temperature was 22°C +/ - 1°C, with a relative humidity of 60% and maximum background noise of 56 dB. Mice were exposed to 12 h light/dark […]
Test compounds. Compound 6 was dissolved in water for injection in which it formed a clear colourless solution. Polymyxin B was dissolved in saline for injection to produce a clear colourless […]
Tolerability study. The tolerability of compound 6 was assessed in the same mouse strain used for the efficacy studies. Compound 6 was administered via subcutaneous administration route at 3 8-h […]
The mice used in the tolerability study were naïve and were not immunosuppressed or infected. […]

Data set [3] has as its system E. coli ATCC 25922. As to the kind of experiment: Neutropenic mouse thigh infection efficacy study. The format is in vivo, mice (ICR). To be noted: neutropenic mice. How it is done: as §3, §4, §5, §6
Test compounds. Compound 6 was dissolved in water for injection in which it formed a clear […]
colourless solution. […]
Compound 6 was administered via subcutaneous administration route at 3 8-h […]
The mice used in the tolerability study were naïve and were not immunosuppressed or infected.
Efficacy study. The in vivo efficacy of compound 6 was assessed in a mouse thigh abscess model where both thighs of each mouse were infected with E. coli ATCC 25922
Immunosuppression. […]
Endpoints. One h and 20.5 (planned 25) h post-infection, the clinical condition of all animals was assessed prior to humane euthanasia using pentobarbitone overdose, and the thighs were removed and weighed. Thigh samples were homogenized in 3mL ice cold sterile PBS; the homogenates were quantitatively cultured onto CLED agar and incubated at 37°C for 18 - 24 h before colonies were […]
Data analysis. The data from the culture burdens were analysed using appropriate non-parametric statistical models (Kruskal-Wallis using Conover-Inman to make all pairwise comparisons between groups) with StatsDirect software v. […]

Each structure is given as a SMILES string. Values after ≈ are worked out from the molar mass of the structure shown. Where two headings read alike, the source gives them in different places. Positions of bridges follow the written chain, without caps; N, C: chain ends. Non-standard residues stand in square brackets, D forms with d. Residues, ends and D or L forms follow the SMILES beside them. *: point of attachment. Octanoyl(7-Me) = CC(C)CCCCCC(=O)*; dOrn = NCCC[C@@H](N)C(=O)O; Orn = NCCC[C@H](N)C(=O)O; Dap = NC[C@H](N)C(=O)O

In general, MIC refers to the least concentration at which growth counts as inhibited. With `CC[C@H](C)[C@@H]1NC(=O)[C@@H](NC(=O)[C@H](Cc2c[nH]c3ccccc23)NC(=O)[C@@H](CCCN)NC(=O)CNC(=O)[C@H](CCCN)NC(=O)[C@@H](CCCN)NC(=O)[C@@H](Cc2c[nH]c3ccccc23)NC(=O)[C@@H](Cc2ccc(O)cc2)NC(=O)[C@@H](CO)NC(=O)CCCCCC(C)C)CNC(=O)CNC(=O)CNC(=O)[C@H](CC(N)=O)NC1=O` [Dap9-Lat (6), Dap9-laterocidamide] ({Octanoyl(7-Me)}-[dS][dY][dW][dOrn][Orn]G[dOrn]W[Dap]INGG; lactam 9-C), the minimum inhibitory concentration (MIC) with A. baumannii 2018-006 was determined as 4 µg/mL (≈ 2.52 µM); in the data set on A. baumannii ATCC 17961 it was 4 µg/mL (≈ 2.52 µM); in the data set with A. baumannii ATCC 17978, 4 µg/mL (≈ 2.52 µM); against E. coli ATCC 25922 [1] (ATCC 25922, 16 h), 1 µg/mL (≈ 0.629 µM); with E. coli ATCC 25922 [1] (Ec ATCC 25922, broth microdilution (CLSI), MHB, 2 × 10^5 CFU/mL, 16 h 37 °C, visual read-out, three technical replicates), 1.0 µg/mL (≈ 0.629 µM); with K. pneumoniae 2048, 2 µg/mL (≈ 1.26 µM). Further, the MIC with K. pneumoniae ATCC 11228 is 2 µg/mL (≈ 1.26 µM); in the data set on K. pneumoniae ATCC 13883, 2 µg/mL (≈ 1.26 µM); against K. pneumoniae JS-123, 0.5 µg/mL (≈ 0.314 µM); in the data set on P. aeruginosa ATCC 27853, 0.5 to 1 µg/mL; with P. aeruginosa M-120, 1 to 2 µg/mL; in the data set with P. aeruginosa NRZ-03961 it was 2 µg/mL (≈ 1.26 µM). Moreover, the minimum inhibitory concentration (MIC) with P. aeruginosa PAO1 is 1 to 2 µg/mL; with S. aureus USA300, over 64 µg/mL. The tolerability result in [2] was “well tolerated”; in data set [2] (listed as 6), “good tolerability”. The “dose response of thigh burden” value in the data set with E. coli ATCC 25922 [3] (E. coli ATCC 25922 thigh infection, 10, 20 and 40 mg kg^−1 SC q8h) was “clear dose response”. Besides, the “reduction in bacterial load relative to the untreated group” value in the data set on E. coli ATCC 25922 [3] (thigh infection with E. coli ATCC 25922, 40 mg kg^−1 SC q8h starting 1 h post-infection, thigh burden cfu g^−1 at 20.5 h) is about 5 log.
